Measurements from US7265111B2, “Adenosine analogues and their use as pharmaceutical agents” (Sanofi-Aventis Deutschland GmbH, priority 2002, dated 2007).

Assays:
[1] = molecular target: T1, Adenosine A1 receptor (Homo sapiens, UniProt P30542); assay: FLIPR intracellular Ca2+ functional assay, recombinant CHO cells (A1/Gα6qi4myr); format: cell-based; settings: read-out: EC50 values (agonist activity at adenosine receptors) A1
T1 construct: expressed in transfected cells; host or cells: CHO (Chinese hamster ovary) cells, stably double-transfected
T1 sequence (P30542 1-326): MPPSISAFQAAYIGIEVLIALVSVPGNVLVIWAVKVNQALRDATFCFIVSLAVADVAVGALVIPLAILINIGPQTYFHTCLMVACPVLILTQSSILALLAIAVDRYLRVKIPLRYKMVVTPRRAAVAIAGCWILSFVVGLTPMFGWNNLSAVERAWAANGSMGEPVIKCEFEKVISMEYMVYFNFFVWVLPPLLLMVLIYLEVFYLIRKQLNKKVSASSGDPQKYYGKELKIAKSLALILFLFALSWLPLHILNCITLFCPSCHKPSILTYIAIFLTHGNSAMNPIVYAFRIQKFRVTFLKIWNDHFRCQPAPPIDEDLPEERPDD
Protocol: (§1) In Vitro Functional Assays with Recombinant Cell Lines:
(§2) Functional assays were performed by detection of agonist-induced changes in the intracellular concentration of Ca^2+ in recombinant cell lines expressing adenosine receptor subtypes using the FLIPR™ (fluorescence imaging plate reader, Molecular Devices) technology. To allow optimal signalling through Ca^2+, chinese hamster ovary (CHO) cells were stably double-transfected with cDNAs to achieve expression of suitable combinations of adenosine receptor subtypes (A1, A2a, A2b or A3) with either G-protein Gα16 or hybrid protein Gα6qi4myr (German Patent Application no. 100333532.2). Optimal signals were achieved using combinations as follows:
(§3) For assays, recombinant cells were seeded in 96-well dishes (50000 cells/well) and grown overnight. Medium was then removed and cells incubated for 1 hour in buffer containing the dye Fluo-4. After incubation with dye, cells were washed, test compound added and changes in intracellular Ca^2+ concentration measured by FLIPR. Measured values were expressed as % change relative to controls (0%: no test compound added; 100%: 1 μM Adenosine added) and used for calculation of dose-response curves and subsequent determination of EC50 values.

[2] = molecular target: T2, Adenosine A2b receptor (Homo sapiens, UniProt P29275); assay: FLIPR intracellular Ca2+ functional assay, recombinant CHO cells (A2b/Gα16); format: cell-based; settings: for EC50: read-out: EC50 values (agonist activity at adenosine receptors) A2B
T2 construct: expressed in transfected cells; host or cells: CHO (Chinese hamster ovary) cells, stably double-transfected
T2 sequence (P29275 1-332): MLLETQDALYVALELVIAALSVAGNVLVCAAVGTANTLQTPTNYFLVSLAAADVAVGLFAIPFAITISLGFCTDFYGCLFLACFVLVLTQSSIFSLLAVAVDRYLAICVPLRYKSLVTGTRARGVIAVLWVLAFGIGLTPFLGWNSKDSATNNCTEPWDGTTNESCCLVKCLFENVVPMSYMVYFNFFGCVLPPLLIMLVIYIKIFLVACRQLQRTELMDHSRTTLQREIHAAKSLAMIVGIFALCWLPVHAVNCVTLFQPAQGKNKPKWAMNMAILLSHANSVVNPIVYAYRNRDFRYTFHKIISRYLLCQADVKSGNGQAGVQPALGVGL
Protocol: as §1, §2, §3

[3] = molecular target: T3, Adenosine A2a receptor (Homo sapiens, UniProt P29274); assay: FLIPR intracellular Ca2+ functional assay, recombinant CHO cells (A2a/Gα16); format: cell-based
T3 construct: expressed in transfected cells; host or cells: CHO (Chinese hamster ovary) cells, stably double-transfected
Protocol: as §1, §2, §3

[4] = molecular target: T4, Adenosine A3 receptor (Homo sapiens, UniProt P0DMS8); assay: FLIPR intracellular Ca2+ functional assay, recombinant CHO cells (A3/Gα6qi4myr); format: cell-based; settings: for EC50: read-out: EC50 values (agonist activity at adenosine receptors) A3
T4 construct: expressed in transfected cells; host or cells: CHO (Chinese hamster ovary) cells, stably double-transfected
T4 sequence (P0DMS8 1-318): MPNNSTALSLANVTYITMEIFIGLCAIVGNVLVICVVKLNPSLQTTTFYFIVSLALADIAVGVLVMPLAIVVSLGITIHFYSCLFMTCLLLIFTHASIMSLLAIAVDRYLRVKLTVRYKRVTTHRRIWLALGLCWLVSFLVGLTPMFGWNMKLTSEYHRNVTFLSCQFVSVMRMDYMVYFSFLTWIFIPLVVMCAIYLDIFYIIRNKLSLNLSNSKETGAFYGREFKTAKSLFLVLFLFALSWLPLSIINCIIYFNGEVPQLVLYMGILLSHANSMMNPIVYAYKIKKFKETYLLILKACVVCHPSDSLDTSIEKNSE
Protocol: as §1, §2, §3

[5] = tested on: isolated rat adipocytes; assay: Antilipolytic effect in isolated rat adipocytes; format: cell-based; settings: Adipocyte, adenosine deaminase-induced lipolysis (glycerol and free fatty acid release)
Protocol: E. Antilipolytic Effect in Isolated Rat Adipocytes:
For the preparation of isolated rat adipocytes, epididymal fat pads were obtained from male Sprague-Dawley rats (150-180 g) killed by decapitation. The main fat pad blood vessel was removed with forceps and the pads were cut into small pieces. Digestion was carried out at 37° C. in a shaking water bath by treating 1 g of sliced pad for 20 min with 3 ml of 1 mg/ml collagenase (type I, CLS, Worthington) in 1% BSA, fraction V, in KRH (Krebs-Ringer solution buffered with 25 mM HEPES/KOH, pH 7.4, containing 2.5 mM CaCl2, 2 mM glucose, 1 mM sodium pyruvate, 0.5 units/ml adenosin deaminase and 200 nM phenylisopropyl adenosine). The adipocytes were filtered through nylon mesh of sufficient pore size that no pressure other than gentle teasing with a plastic spatula was necessary for the cells to pass through. After three cycles of centrifugation (500 g, 1 min), aspiration of the infranatant. and resuspension in KRH containing 1% BSA, the cells were suspended in KRH containing 4% defatted BSA. Small aliquots of the final suspension were aspirated into capillary hematocrit tubes and centrifuged for 1 min in a Microhematocrit centrifuge in order to determine what fraction of the suspension consisted of fat cells. Results expressed as activities per unit volume of packed adipocytes (corresponding to equivalent numbers of cells) are based on this centrifugation procedure. Lipolysis was initiated by addition of a 100 μl aliquot of the adipocyte suspension to 700 μl of incubation medium [prewarmed to 37° C. and consisting of KRH, 4% defatted BSA and 1 U/ml adenosine deaminase (type I, Sigma)], with or without addition of 8 μl of a solution of the appropriate test substance in 100% DMSO (at a concentration corresponding to 100 times its concentration in the final mixture). […] Incubations were performed in 5 ml polypropylene vials agitated in a shaking water bath (140 cycles/min, amplitude 4.5 cm) at 37° C. for 20, 40, and 60 min. The incubation was terminated by addition of 200 μl of 50 mM EDTA buffered to pH 7.4 with Tris. For the glycerol determination, the whole mixture was mixed rapidly and homogenized with a ground glass pestle in a 1 ml ground glass homogenizing tube (10 pulses). The homogenate was transferred immediately to a 1.5 ml Eppendorf cup precooled to 4° C., after which the extracts were maintained at 4° C. The homogenate was then centrifuged (10,000 g, 15 min) and the infranatant below the fat cake removed with a glass Pasteur pipette. taking care not to aspirate the membrane pellet. and transferred to another Eppendorf cup. 300 μl aliquots of the infranatant were added to 300 μl volumes of 10% (w/v) HClO4. The precipitate was in each case removed by centrifugation (10,000 g, 2 min) and the supernatant neutralized with 20% (w/v) KOH, followed by addition of 50 μl of 1 M Tris/HCl, pH 7.4, A 50 μl sample was then incubated (5 min, 37° C.) with 1 ml of 0.1 M HEPES/KOH, pH 7.5, containing 2 mM ATP, 0.5 mM 4-aminoantipyrine, 1 mM EDTA, 0.5 U glycerol kinase, 4 U glycerol-3-phosphate oxidase, 2 U peroxidase, 2.7 mM p-chlorophenol, 0.04% Triton X-100 and 2 mM MgSO4.7H2O, and the glycerol content determined from the absorbance at 505 nm. For the determination of free fatty acids, 300 μl aliquots of the incubation mixture were added to 3 ml of chloroform/heptane (1:1 v/v) containing 2% (v/v) methanol. and the liberated free fatty acids determined with copper reagent and bathocuproine. The inhibitory activities of the cyclipostins were calculated from the combined results (glycerol and free fatty acid release) by plotting the log of the dose against the percent response (with the adenosine deaminase-induced lipolysis set at 100%). Data in the linear portion of the log (dose)-percent response curves were analyzed using parallel-line bioassay techniques.

[6] = tested on: isolated guinea pig atrium; assay: Effect on the isolated guinea pig atrium (contractile force, heart rate)
Protocol: D. Effect on the Isolated Guinea Pig Atrium:
Guinea pigs of either sex were killed by a blow on the back of the neck and exsanguinated.
Their heart was taken out and the atria removed. The preparation (atrium) was immediately transferred to Ringer solution (JT 431) which was at a temperature of 32° C. and was bubbled with a mixture of 95% O2 and 5% CO2. The composition of the solution in […] was: NaCl 9.0; KCl 0.42 CaCl2 0.24; NaHCO3 0.2; glucose 1.0. The atrium beats spontaneously with an initial tension of 500 mg. The contractile force and the heart rate was recorded with a computer program and automatically calculated (B-mon and A-mon PC programs. Fa. Jäckel. Hanau. GERMANY). After equilibration, the test compound was added to a final bath concentration. N was 4-6 per concentration.

T3 sequence (P29274 whole entry): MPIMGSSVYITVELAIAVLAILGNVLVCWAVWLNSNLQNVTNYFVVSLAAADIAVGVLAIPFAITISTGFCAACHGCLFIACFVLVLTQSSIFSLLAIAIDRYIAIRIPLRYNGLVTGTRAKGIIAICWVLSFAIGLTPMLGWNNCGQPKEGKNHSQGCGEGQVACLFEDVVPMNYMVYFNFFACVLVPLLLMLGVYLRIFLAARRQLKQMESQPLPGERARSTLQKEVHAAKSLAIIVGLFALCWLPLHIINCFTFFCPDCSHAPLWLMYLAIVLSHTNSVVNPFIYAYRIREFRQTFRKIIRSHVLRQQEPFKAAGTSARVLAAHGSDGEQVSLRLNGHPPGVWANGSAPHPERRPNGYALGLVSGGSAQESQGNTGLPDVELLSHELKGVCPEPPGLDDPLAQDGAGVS

Row | SMILES | EC50 [1] [µM] | melting point [°C] | IC50 [5] [µM] | Heart rate ([6]; at 1–100 μM) | EC50 [2] [µM] | EC50 values (agonist activity at adenosine receptors) A2A [3] | EC50 [4] [µM] | also measured
1 | O[C@@H]1[C@@H](COC(F)(F)F)C[C@@H](n2cnc3c(N[C@H]4CCN(c5cccc(Cl)c5)C4)ncnc32)[C@@H]1O [Example 3, (1R,2S,3R,5R)-3-{6-[1-(3-chloro-phenyl-1-yl)-pyrrolidin-3(S)-ylamino]-purin-9-yl}-5-trifluoromethoxymethyl-cyclopentane-1,2-diol] | 3.69 |  |  |  |  |  |  | EC50 values (agonist activity at adenosine receptors) A2B [2]: inactive; EC50 ([3]; read-out: EC50 values (agonist activity at adenosine receptors) A2A): > 30 µM; EC50 values (agonist activity at adenosine receptors) A3 [4]: inactive
2 | O[C@@H]1[C@@H](COC(F)(F)F)C[C@@H](n2cnc3c(N[C@H]4CCN(c5ccc(Cl)cn5)C4)ncnc32)[C@@H]1O [Example 9, (1R,2S,3R,5R)-3-{6-[1-(5-chloro-pyridin-2-yl)-pyrrolidin-3(S) -ylamino]-purin-9-yl}-5-trifluoromethoxymethyl-cyclopentane-1,2-diol] |  | 130 |  |  |  |  |  | 
3 | O[C@@H]1[C@@H](CF)C[C@@H](n2cnc3c(N[C@H]4CCN(c5cccc(Cl)c5)C4)ncnc32)[C@@H]1O [Example 1, (1R,2S,3R,5S)-3-{6-[1-(3-chloro-phenyl-1-yl)-pyrrolidin-3(S)-ylamino]-purin-9-yl}-5-fluoromethyl-cyclopentane-1,2-diol] | 0.15 |  | 0.005 | no effect at 1–100 μM | > 30 | inactive | > 50 | 
4 | CC[C@H](Cc1sccc1Cl)Nc1ncnc2c1ncn2[C@@H]1C[C@H](COC(F)(F)F)[C@@H](O)[C@H]1O [Example 11, (1R,2S, 3R, 5R)-3-{6-[(R)-1-(3-chloro-thiophen-2-ylmethyl) -propylamino]-purin-9-yl}-5-trifluoromethoxymethyl-cyclopentane-1,2-diol] |  | 140 |  |  |  |  |  | 
5 | O[C@@H]1[C@@H](CF)C[C@@H](n2cnc3c(N[C@H]4CCN(c5ccc(Cl)cn5)C4)ncnc32)[C@@H]1O [Example 6, (1R,2S,3R,5S)-3-{6-[1-(5-chloro-pyridin-2-yl)-pyrrolidin-3(S) -ylamino]-purin-9-yl}-5-fluoromethyl-cyclopentane-1,2-diol] | 1.25 |  | 0.01 | no effect at 1–100 μM | > 30 | Inactive |  | Contractile force ([6]; at 30 μM): −3% at 30 μM; EC50 values (agonist activity at adenosine receptors) A3 [4]: inactive
6 | CC[C@H](Cc1sccc1Cl)Nc1ncnc2c1ncn2[C@@H]1C[C@H](CF)[C@@H](O)[C@H]1O [Example 2, (1R,2S,3R,5S)-3-{6-[(R)-1-(3-chloro-thiophen-2-ylmethyl) -propylamino]-purin-9-yl}-5-fluoromethyl-cyclopentane-1,2-diol] | 0.02 |  | 0.02 |  | 3.4 | inactive | > 40 | Contractile force ([6]; at 10 μM): −4% at 10 μM; Heart rate ([6]; at 10 μM): −4% at 10 μM
7 | O[C@@H]1[C@@H](COC(F)(F)F)C[C@@H](n2cnc3c(N[C@H]4CCN(c5ccc(C(F)(F)F)cn5)C4)ncnc32)[C@@H]1O [Example 8, (1R,2S,3R,5R)-3-{6-[1-(5-trifluoromethyl-pyridin-2-yl)-pyrrolidin-3(s)-ylamino]-purin-9-yl}-5-trifluoromethoxymethyl-cyclopentane-1,2-diol] |  | 142 |  |  |  |  |  | 
8 | O[C@@H]1[C@@H](CF)C[C@@H](n2cnc3c(N[C@H]4CCN(c5ccc(C(F)(F)F)cn5)C4)ncnc32)[C@@H]1O [Example 4, (1R,2S,3R,5S)-3-{6-[1-(5-trifluoromethyl-pyridin-2-yl)-pyrrolidin-3(S)-ylamino]-purin-9-yl}-5-fluoromethyl-cyclopentane-1,2-diol] | 1.61 |  | 0.1 | no effect at 1–100 μM | > 30 | Inactive | > 50 | Contractile force ([6]; at 10 μM): −7% at 10 μM
